According to paper PMC10221469 (Viruses, 2023):

System: SARS-CoV-2 pseudovirus (lentiviral vector, spike D614G)
Type: cell-based
Conditions: read-out: IC50 pseudovirus entry (luciferase output)

Structure (SMILES) | IC50 [nM]
C#CCC(Cc1cnc2nc(N)nc(N)c2n1)c1ccc(C(=O)N[C@@H](CCC(=O)O)C(=O)O)cc1 (some centres unmarked) [Pralatrexate] | 12.1
COc1cc(NCc2ccc3nc(N)nc(N)c3c2C)cc(OC)c1OC [Trimetrexate] | 225
